Data published in patent US20230393140A1, “BINDING ASSAYS INVOLVING A PLURALITY OF SYNTHETIC COMPOUNDS, TARGETS, AND COUNTER TARGETS” (SRI International, priority 2020, published 2023).
Like-named read-outs stand apart in the source and are kept apart here. Marks after values point to notes of the source that are not given here. Numbered stars: 1 amine (or outer) side, 2 acyl side, 3 side chain; on linkers, the order of the positions; unused ones are H or OH. Square brackets hold non-standard residues; d marks the D form. Ends that are not written are not given here. Peptide text beside a SMILES is read from it. * marks the point of attachment. 5FAM = O=C1OC2(c3ccc(O)cc3Oc3cc(O)ccc32)c2ccc(C(=O)*)cc21; NHCH2C6H4(4-CH2CONH2) = NC(=O)Cc1ccc(CN*)cc1; X1 = O=C(Cc1ccc(CN[*:1])cc1)[*:2]

Columns and labels:
K-Ras = target: T1, K-Ras (Homo sapiens, UniProt P01116, G12V); assay: MST binding affinity of resynthesized NNP hits to K-Ras
T1 construct: purchased Cytoskeleton Inc. CS-RS04
In short: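 K-Ras G12V was GTP-loaded (EDTA exchange, 750 μM GTP, 2 h at 30° C, then MgCl2) and labeled with maleimide-647 dye. MST was run at room temperature in 20 mM HEPES pH 7.4, 150 mM NaCl, 10 mM MgCl2, 0.05% Tween-20, 1 mM DTT. Incubations lasted 15, 30 and 45 min; triplicate data fitted for affinity.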

[1] = target: T2, K-Ras-CF555 versus Raf-AF647 (Homo sapiens, UniProt P01116, G12V); assay: On-bead FAST/ADM competition screen, MFI of target and counter target; format: binding; conditions: hit bead in primary competition screen
T2 construct: purchased Cytoskeleton Inc. (K-Ras); Jena Bioscience (Raf-RBD) CS-RS04; PR-305

K-Ras-Raf interaction = target: T3, K-Ras-Raf interaction (Homo sapiens, UniProt P01116, G12V); assay: K-Ras/Raf inhibition assay (MST competition binding); conditions: NNP at 1 μM pre-incubated with K-Ras 15 minutes at room temperature, then Raf titration
T3 construct: purchased Cytoskeleton Inc. (K-Ras); Jena Bioscience (Raf-RBD) CS-RS04; PR-305
Protocol: This was tested on an MST competition binding assay (see FIG. 11A).
Loading was performed according to the following protocol: The 200 μM stock solution of the target protein was diluted to 10 μM in 20 mM HEPES pH 8.0, 150 mM NaCl, 10 mM MgCl2, 1 mM TCEP, 0.05% Tween-20 (total volume 110 μL). 10 μL were set aside for later labeling quality control. EDTA pH 8.0 (stock concentration 10 mM) was added to the protein solution to a final concentration of 80 μM. GTP (stock concentration 50 mM) was added to the protein solution to a final concentration of 750 μM. The solution was incubated at 30° C. for 2 hours (PCR tube) and then placed on ice for 2 minutes. MgCl2 was added to the protein solution to a final concentration of 100 mM. The resulting protein solution was buffer exchanged into the buffer required in the labeling kit for labeling. […] All the other target molecules (TNFα, IL-6, IL-6R and ASGPR) were used as received without any additional treatment.
Loading of K-Ras with the GTP was performed according to the protocol detailed above (Activation of K-Ras by GTP loading). After the GTP loading the resulting protein solution was buffer exchanged into 100 mM HEPES pH 6.5, 5 mM MgCl2, 50 mM NaCl, 1 mM TCEP.

cRaf/K-Ras (G12V) PPI = target: T4, cRaf/K-Ras (G12V) PPI (Homo sapiens, UniProt P01116, G12V); assay: K-Ras-cRaf HTRF-based PPI profiling; format: biochemical; conditions: for HillSlope: curve fit of % binding, K-Ras G12V 30 nM, GST-cRaf 10 nM; for blank corrected HTRF: raw data, compounds without fluorescein;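 for blank corrected HTRF: background is the signal of wells with all components except cRaf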
T4 construct: b-Kras G12V (GppNHp) (aa 2-169); biotin (b-
In short: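 K-Ras(G12V) pre-incubated 30 min at room temperature with compound in 20 mM HEPES pH 7.4, 150 mM NaCl, 5 mM MgCl2, 1 mM DTT, 0.005% NP40, 1% DMSO, then cRaf added. HTRF read via anti-GST-Tb cryptate/streptavidin-XL665. % binding is relative to DMSO controls; curves fitted only if activity at top concentration fell below 65%.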

biotinylated GST = assay: Interference check with biotinylated GST and detection mix
Excerpt: Table 20 below provides an interference check on the synthetic compounds using biotinylated GST, which was used with the detection mix to check for compound effect on fluorescence.

[2] = format: in vitro ADME; conditions: 17 h
Protocol: For human plasma stability, lyophilized human plasma was reconstituted in sterile water for injection, aliquoted into 200 uL aliquots and stored frozen at −80 degrees C. prior to the stability studies. For the stability studies three aliquots per NNP were thawed at room temperature. An additional set of three aliquots for a positive control peptide (Angiotensin I) were also thawed. The incubations for the plasma stability were initiated by mixing 2 uL of a 2 mM stock solution of NNP IL6R-87-8 or positive control in DMSO with the 200 uL thawed plasma aliquot. After briefly vortex-mixing, 50 uL zero-time-point samples were removed, mixed with 50 uL of water and 400 uL of acetonitrile and frozen on dry ice until all time point samples had been collected. The samples were incubated at 37 degrees C. with samples removed and water/acetonitrile added at 1 hour, 3 hours, and 17 hours. Proteins were precipitated by centrifuging the samples at 17,000 G, 4 degrees C. for 1 hour. The supernatants were removed and concentrated in a centrifugal vacuum concentrator (GeneVac Genie II) at 45 degrees C. until the volume had been reduced to around 60 uL. […]

[3] = read-out: KD of K-Ras hits by MST
[4] = K-Ras, compound with fluorescein on N-term, read-out: KD[nM] in MST (with fluorescein on N-term)
[5] = read-out: KD (nM) [95% conf. int], MST, NNP1 library hit, target K-Ras, one-site binding model

Compound	Kd (K-Ras; [3]) [nM]	Inhibition of K-Ras-Raf PPI (K-Ras-Raf interaction)	HillSlope (cRaf/K-Ras (G12V) PPI)	blank corrected HTRF (cRaf/K-Ras (G12V) PPI; conc. 1.00E−05)	blank corrected HTRF (cRaf/K-Ras (G12V) PPI; conc. 1.11E−06)	blank corrected HTRF (cRaf/K-Ras (G12V) PPI; conc. 3.33E−06)	blank corrected HTRF (cRaf/K-Ras (G12V) PPI; conc. 3.70E−07)	blank corrected HTRF (cRaf/K-Ras (G12V) PPI; conc. 4.12E−08)	blank corrected HTRF (cRaf/K-Ras (G12V) PPI; conc. 4.57E−09)	blank corrected HTRF (cRaf/K-Ras (G12V) PPI; conc. 5.08E−10)	Kd (K-Ras; [4]) [nM]	Kd (K-Ras; [5]) [nM]	% signal compared to DMSO (biotinylated GST; assay conc. 0.000508053 μM) [%]	% signal compared to DMSO (biotinylated GST; assay conc. 0.001524158 μM) [%]	% signal compared to DMSO (biotinylated GST; assay conc. 0.004572474 μM) [%]	% signal compared to DMSO (biotinylated GST; assay conc. 0.013717421 μM) [%]	% signal compared to DMSO (biotinylated GST; assay conc. 0.041152263 μM) [%]	% signal compared to DMSO (biotinylated GST; assay conc. 0.12345679 μM) [%]	% signal compared to DMSO (biotinylated GST; assay conc. 0.37037037 μM) [%]	% signal compared to DMSO (biotinylated GST; assay conc. 1.111111111 μM) [%]	also measured
CC(C)C[C@@H](NC(=O)c1ccc2c(c1)C(=O)OC21c2ccc(O)cc2Oc2cc(O)ccc21)C(=O)N1CCC[C@@H]1C(=O)N[C@H](CCC(=O)O)C(=O)N[C@H](CO)C(=O)N[C@@H](Cc1ccccc1)C(=O)NCc1ccc(CC(=O)NCC(=O)N[C@@H](C(=O)N2CCC[C@@H]2C(=O)N[C@H](CCCNC(=N)N)C(=O)N[C@@H](C)C(=O)NCc2ccc(CC(=O)N3CCC[C@@H]3C(=O)N[C@H](CO)C(=O)N[C@H](CCC(=O)O)C(=O)N[C@H](CCCNC(=N)N)C(=O)NCC(=O)NCc3ccc(CC(=O)N4CCC[C@@H]4C(=O)N[C@H](CCCCN)C(=O)N[C@H](Cc4ccc(O)cc4)C(=O)N[C@H](CCCNC(=N)N)C(=O)N[C@@H](Cc4ccccc4)C(=O)NCc4ccc(CC(=O)N[C@H](CCCNC(=N)N)C(=O)N[C@H](Cc5ccc(O)cc5)C(=O)N[C@@H](C(=O)N[C@H](CCC(=O)O)C(=O)N[C@@H](C)C(=O)NCc5ccc(CC(=O)N[C@H](Cc6ccc(O)cc6)C(=O)N6CCC[C@@H]6C(=O)N[C@H](CCCNC(=N)N)C(=O)N[C@H](CCC(=O)O)C(=O)NCC(=O)NCc6ccc(CC(N)=O)cc6)cc5)[C@H](C)O)cc4)cc3)cc2)C(C)C)cc1 [KRAS-1-4] (5FAM-[dL][dP][dE][dS]F[X1]G[dV][dP][dR]A[X1][dP][dS][dE][dR]G[X1][dP][dK][dY][dR]F[X1][dR][dY][dT][dE]A[X1][dY][dP][dR][dE]G-{NHCH2C6H4(4-CH2CONH2)})	36	no inhibition	–	–	–	–	–	–	–	–	–	–	–	–	–	–	–	–	–	–	MFI ratio of the target (K-Ras-CF555) to the counter target (Raf-AF647) for the hit beads [1]: 1.89
CC(C)C[C@@H](NC(=O)[C@@H](Cc1ccc(O)cc1)NC(=O)[C@H]1CCCN1C(=O)[C@@H](CO)NC(=O)Cc1ccc(CNC(=O)CNC(=O)[C@@H](Cc2c[nH]c3ccccc23)NC(=O)[C@@H](CCCNC(=N)N)NC(=O)CNC(=O)[C@H]2CCCN2C(=O)Cc2ccc(CNC(=O)[C@H](C)NC(=O)[C@@H](CCCNC(=N)N)NC(=O)[C@H]3CCCN3C(=O)[C@H](NC(=O)[C@@H](Cc3ccc(O)cc3)NC(=O)Cc3ccc(CNC(=O)[C@H](Cc4ccccc4)NC(=O)[C@@H](CO)NC(=O)[C@@H](CCCNC(=N)N)NC(=O)[C@H]4CCCN4C(=O)CNC(=O)Cc4ccc(CNC(=O)[C@H](C)NC(=O)[C@@H](CCCNC(=N)N)NC(=O)[C@H]5CCCN5C(=O)[C@H](NC(=O)CNC(=O)Cc5ccc(CNC(=O)[C@@H](NC(=O)[C@@H](Cc6ccc(O)cc6)NC(=O)[C@@H](Cc6c[nH]cn6)NC(=O)[C@H]6CCCN6C(=O)[C@@H](Cc6c[nH]c7ccccc67)NC(=O)c6ccc7c(c6)C(=O)OC76c7ccc(O)cc7Oc7cc(O)ccc76)C(C)C)cc5)C(C)C)cc4)cc3)[C@H](C)O)cc2)cc1)C(=O)N[C@@H](C)C(=O)NCc1ccc(CC(N)=O)cc1 [KRAS-1-8] (5FAM-[dW][dP][dH][dY]V[X1]G[dV][dP][dR]A[X1]G[dP][dR][dS]F[X1][dY][dT][dP][dR]A[X1][dP]G[dR][dW]G[X1][dS][dP][dY][dL]A-{NHCH2C6H4(4-CH2CONH2)})	44	complete inhibition	−0.6222	7296	10835	9028	12171	15230	14396	13397	44	44	99.94	102.4	103	98.33	87.69	97.53	93.95	81.88	blank corrected HTRF (cRaf/K-Ras (G12V) PPI; conc. 1.37E−08): 15117; % signal compared to DMSO (biotinylated GST; assay conc. 3.333333333 μM): 68.53%; % signal compared to DMSO (biotinylated GST; assay conc. 10 μM): 56.45* %
CC(C)C[C@H](NC(=O)[C@@H](C)NC(=O)[C@@H](CCC(=O)O)NC(=O)[C@H](NC(=O)[C@@H](CCCCN)NC(=O)Cc1ccc(CNC(=O)[C@H](C)NC(=O)[C@@H](CCCNC(=N)N)NC(=O)[C@H]2CCCN2C(=O)[C@H](NC(=O)CNC(=O)Cc2ccc(CNC(=O)[C@H](Cc3ccccc3)NC(=O)[C@@H](CO)NC(=O)[C@@H](CCC(=O)O)NC(=O)[C@H]3CCCN3C(=O)[C@@H](CC(C)C)NC(=O)c3ccc4c(c3)C(=O)OC43c4ccc(O)cc4Oc4cc(O)ccc43)cc2)C(C)C)cc1)[C@H](C)O)C(=O)NCc1ccc(CC(=O)N[C@H](Cc2ccc(O)cc2)C(=O)N[C@@H](C(=O)N2CCC[C@@H]2C(=O)N[C@H](CCCNC(=N)N)C(=O)N[C@@H](C)C(=O)NCc2ccc(CC(=O)N3CCC[C@@H]3C(=O)NCC(=O)N[C@H](CCCNC(=N)N)C(=O)N[C@H](Cc3c[nH]c4ccccc34)C(=O)NCC(=O)NCc3ccc(CC(=O)NCC(=O)N[C@H](Cc4c[nH]c5ccccc45)C(=O)N[C@H](Cc4c[nH]cn4)C(=O)N[C@H](CCCNC(=N)N)C(=O)N[C@@H](C)C(=O)NCc4ccc(CC(N)=O)cc4)cc3)cc2)[C@H](C)O)cc1 [KRAS-1-13] (5FAM-[dL][dP][dE][dS]F[X1]G[dV][dP][dR]A[X1][dK][dT][dE][dA]L[X1][dY][dT][dP][dR]A[X1][dP]G[dR][dW]G[X1]G[dW][dH][dR]A-{NHCH2C6H4(4-CH2CONH2)})	30	partial inhibition	−0.821	3798	8379	3957	9542	14025	13413	5044	30	30	101.8	103.1	102.8	101.9	102.1	100.3	100.4	94.53	blank corrected HTRF (cRaf/K-Ras (G12V) PPI; conc. 1.52E−09): 13665; % signal compared to DMSO (biotinylated GST; assay conc. 3.333333333 μM): 80.42%; % signal compared to DMSO (biotinylated GST; assay conc. 10 μM): 62.38* %
DRVYIHPFHL [Angiotensin I, reference compound]	–	–	–	–	–	–	–	–	–	–	–	–	–	–	–	–	–	–	–	–	Stability in human plasma [2]: completely degraded within four hours
